This passage reports MIC results from patent US20220184155A1, “BACTERIOPHAGES FOR INHIBITING BACTERIA” (REGENTS OF THE UNIVERSITY OF MINNESOTA, priority 2020, published 2022).

Read-outs that look alike come from different tables or passages of the source.

This assay has as its system mix-culture of E. coli strains (E20, 41, 55, and 59). The assay is described as follows: Checkerboard titration assay, phage cocktail with antibiotics. The class given is cell-based. The protocol: A checkerboard titration assay was performed as described previously (Hsieh et al. Diagn Microbiol Infect Dis 16, 343-349 (1993)). Briefly, antibiotics (cefoperazone, vancomycin, polymyxin B, and rifampicin) were two-fold serially diluted on each column, and phage cocktail was 10-fold diluted on each row. The mix-culture of E. coli strains (E20, 41, 55, and 59) was added to 10^5 CFU/well, and the plate was incubated at 42° C. for 24 hours. The OD600 was measured with SpectaMax i3 Platfrom (Molecular Devices, San Jose, Calif.), and shown as a heat plot.
Because the selective pressure of the enrichment media is determined by antibiotic supplements in the media, the inhibition efficacy of the phage cocktail was measured in the presence of four antibiotics (cefoperazone, vancomycin, polymyxin B, and rifampicin) used in BB and PB. […] A checkerboard assay was performed to examine the antimicrobial activity of the phage cocktail in combination with antibiotics.

[1] abbreviates: Escherichia coli, antibiotic without the phage cocktail, 42° C., 24 hours, read-out: MIC.
Where [2] appears, read: antibiotic without the phage cocktail, 42° C., 24 hours.

Turning to `CCN1CCN(C(=O)N[C@@H](C(=O)N[C@@H]2C(=O)N3C(C(=O)O)=C(CSc4nnnn4C)CS[C@H]23)c2ccc(O)cc2)C(=O)C1=O` [cefoperazone], the MIC was more than 512 µg/mL under setting [1] and more than 512 µg/mL under setting [2]. As to polymyxin B, the MIC under setting [2] came to 4 µg/mL. `CN[C@H](CC(C)C)C(=O)N[C@H]1C(=O)N[C@@H](CC(N)=O)C(=O)N[C@H]2C(=O)N[C@H]3C(=O)N[C@H](C(=O)N[C@H](C(=O)O)c4cc(O)cc(O)c4-c4cc3ccc4O)[C@H](O)c3ccc(c(Cl)c3)Oc3cc2cc(c3O[C@@H]2O[C@H](CO)[C@@H](O)[C@H](O)[C@H]2O[C@H]2C[C@](C)(N)[C@H](O)[C@H](C)O2)Oc2ccc(cc2Cl)[C@H]1O` [vancomycin]: the MIC (Escherichia coli, 24 h) came out at 64 µg/mL. With `CO[C@H]1/C=C/O[C@@]2(C)Oc3c(C)c(O)c4c(O)c(c(/C=N/N5CCN(C)CC5)c(O)c4c3C2=O)NC(=O)/C(C)=C\C=C\[C@H](C)[C@H](O)[C@@H](C)[C@@H](O)[C@@H](C)[C@H](OC(C)=O)[C@@H]1C` [rifampicin], the MIC under setting [1] was determined as 32 µg/mL.
